Patent US20230202995A1, “HIGH EFFICIENT SEX PHEROMONE LURES FOR ECTROPIS OBLIQUE AND ECTROPIS GRISESCENS” (CHANGZHOU UNIVERSITY, priority 2021, published 2023)

The molecules below were run on E. oblique (assay: Field trapping test with sex pheromone lures in traps, tea plantation). Conditions: lures with (3Z,6Z,9Z)-octadecatriene.
Format: in vivo, Ectropis oblique
Method: Embodiment 9: Field trapping tests were carried out at a tea plantation of Jintan Xinpin Tea Industry Co., Ltd., Changzhou City, Jiangsu Province. Sex pheromone lures used in the tests were made according to the schemes described in Embodiments 3-8, and a blank control was a lure made of n-hexane. The sex pheromone lure was used with a trap, each treatment process was repeated 3 times, and the number of trapped male pests in one month was counted.
Embodiment 50: Field trapping tests were carried out at the tea plantation of Jintan Xinpin Tea Industry Co., Ltd., Changzhou City, Jiangsu Province. Sex pheromone lures used in the test were made according to the schemes described in Embodiments 10-49, and a blank control was the lures made of n-hexane. The sex pheromone lures were used with a trap, each treatment process was repeated for 3 times, and the number of trapped insects in one month was counted.
Embodiment 53: Field trapping tests were carried out at the tea plantation of Jintan Xinpin Tea Industry Co., Ltd., Changzhou City, Jiangsu Province. Sex pheromone lures used in the test were made according to the schemes described in Embodiments 51-52, and a blank control was the lures made in Embodiment 12. The sex pheromone lure was used with a trap, each treatment process was repeated 3 times, and the number of trapped insects in one month was counted.
Embodiment 54: Field trapping tests were carried out at the tea plantation of Jintan Xinpin Tea Industry Co., Ltd., Changzhou City, Jiangsu Province. Sex pheromone lures used in the test were made according to the schemes described in Embodiment 12. The sex pheromone lure was used with a trap, each treatment process was repeated for 3 times, and the number of trapped insects in one month was counted.

Row | Structure (SMILES) | Trapping effect on E. oblique (in words)
1 | CC/C=C\C/C=C\C[C@@H]1O[C@@H]1CCCCCCCC [(3Z,6Z,9S,10R)-9,10-epoxy-octadecadiene] | no trapping effect at all
2 | CC/C=C\C[C@@H]1O[C@@H]1C/C=C\CCCCCCCC [(3Z,9Z,6S,7R)-6,7-epoxy-octadecadiene] | certain trapping capacity
3 | CCCCCCCC/C=C\C/C=C\C[C@H]1O[C@H]1CC [(6Z,9Z,3S,4R)-3,4-epoxy-octadecadiene] | no trapping effect at all
4 | CCCCCCCC/C=C\C/C=C\C[C@@H]1O[C@@H]1CC [(6Z,9Z,3R,4S)-3,4-epoxy-octadecadiene] | no trapping effect at all
5 | CC/C=C\C/C=C\C[C@H]1O[C@H]1CCCCCCCC [(3Z,6Z,9R,10S)-9,10-epoxy-octadecadiene] | no trapping effect at all
6 | CC/C=C\C[C@H]1O[C@H]1C/C=C\CCCCCCCC [(3Z,9Z,6R,7S)-6,7-epoxy-octadecadiene] | certain trapping capacity
